Where a SMILES comes first, the peptide text is derived from it. [ ]: non-standard residue; d: D form.

The subject of one series is SH-SY5Y cells. The experiment in a line: Toxicity of peptides on differentiated SH-SY5Y cells (MTT test). Type of series: cell-based, human. The settings on record: 24 h; for toxicity for living cells: up to 20 μM, mean of three independent assays. As for the experimental part:
Figure 2 Analysis of the effects of Aβ1-6WT(D), Aβ1-6A2V(D) and Aβ1-6A2VTAT(D) on neurotoxicity in cell models. SH-SY5Y cells were differentiated with 10 μM retinoic acid. […] Comparison of cell viability was performed by Student t-test.
Toxicity studies with Aβ1-6WT(D), Aβ1-6A2V(D) or Aβ1-6A2VTAT(D) and the short peptides’ ability to inhibit the toxicity induced by Aβ1-42WT in SH-SY5Y cell cultures were analyzed following previously described protocols. Each experiment was performed in triplicate; the data provided were obtained as the mean of three independent assays.
In general terms: Formazan colour is commonly taken as a measure of viable cells.

Series [1] in a line: Crossing of blood brain barrier and cell membranes (data not shown). The settings on record: peptide alone.
For the next series, the system named is amyloid plaques. The experiment in a line: Binding of biotinylated peptides to amyloid in CRND8 mouse brain sections. The settings on record: for staining of amyloid plaques in transgenic mouse brain: CRND8 transgenic brain sections, avidin-biotin complex / DAB. As for the experimental part:
It was tested on brain sections of transgenic and control mice of CRND8 strain[44]. To unequivocally identify the fragment(s) of the peptide responsible for binding to plaques we used three separate segments: Biot-Aβ1-6WT(D), Biot-Aβ1-6A2V(D) and Biot-TAT(D). Seven-micrometre thick brain sections fixed in Carnoy and embedded in paraffin were used for staining.

In the next series the target is T1, Aβ1-42WT (Homo sapiens, UniProt P05067).
T1 construct: Aβ1-42WT oligomers were formed following incubation of Aβ1-42WT at a final concentration of 100 μM; made in house; host or cells: chemical synthesis (solid-phase Fmoc), no expression host
Description: Atomic force microscopy of Aβ1-42WT oligomerization. The series is classed as biochemical. The settings on record: Aβ1-42WT alone, 100 μM, phosphate buffer 50 mM pH 7.4, 4 °C, 24 h, AFM. As for the experimental part:
In polarized-light and EM studies, both peptides were used at 0.125 mM, molar ratio = 1:1 or 1:4 respectively, with 20 days incubation. […] E,F: Representative Tapping mode of AFM images as determined by amplitude error data of Aβ1-42WT oligomers. Aβ1-42WT peptide 100 μM in phosphate buffer 50 mM, pH 7.4 was incubated at 4 °C for 24 h alone (E) (Z range: -10/ + 10 mV) or in presence of Aβ1-6A2VTAT(D) (F) (Z range: -10/ + 25 mV). The molar ratio of Aβ1-42WT to Aβ1-6A2VTAT(D) was 1:4. Scale bar: 1 μm, inset: 200 nm. (G,H): height plot profiles obtained along different lines traced on the topographic AFM images.
Aβ1-42WT oligomers were formed following incubation of Aβ1-42WT at a final concentration of 100 μM in phosphate buffer 50 mM, pH 7.4 at 4 °C for 24 h, alone or in presence of Aβ1-6A2VTAT(D), at 1:4 molar ratio. Sample solutions were diluted to a final concentration of 10 μM of Aβ1-42WT with phosphate buffer and 50 μl of each solution was immediately added onto freshly cleaved mica at room temperature for 2 minutes. Samples were washed and dried under gentle nitrogen flow. AFM analyses were carried out on a Multimode AFM with a Nanoscope V system (Veeco/Digital Instruments). AFM images were analysed using the Scanning Probe Image Processor data analysis package. All the topographic patterns and SPIP characterization were verified via additional measurements on a minimum of five different, well separated areas.

The test system of a further series is APP. The settings on record: enhanced β-secretase cleavage of APP, increased C99; cited from earlier work. The source says: This is consistent with our findings, indicating a shift in APP processing towards the amyloidogenic processing i ...

T1 sequence (P05067 672-713 limits assumed): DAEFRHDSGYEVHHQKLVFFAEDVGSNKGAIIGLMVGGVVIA

Regarding `CC(C)[C@@H](NC(=O)[C@H](N)CC(=O)O)C(=O)N[C@H](CCC(=O)O)C(=O)N[C@H](Cc1ccccc1)C(=O)N[C@H](CCCNC(=N)N)C(=O)N[C@H](Cc1c[nH]cn1)C(=O)O` [Aβ1-6A2V(D)] (H-[dD][dV][dE][dF][dR][dH]-OH), in the series on SH-SY5Y cells, the “toxicity for living cells” value is given as “neither is toxic for living cells even at high concentrations”. Also, the “crossing of blood brain barrier and cell membranes” value in series [1] is reported as “does not efficiently cross either the blood brain barrier (BBB) or cell membranes”.

As for `C[C@@H](NC(=O)[C@H](N)CC(=O)O)C(=O)N[C@H](CCC(=O)O)C(=O)N[C@H](Cc1ccccc1)C(=O)N[C@H](CCCNC(=N)N)C(=O)N[C@H](Cc1c[nH]cn1)C(=O)O` [Aβ1-6WT(D)] (H-[dD][dA][dE][dF][dR][dH]-OH), the “toxicity for living cells” value with SH-SY5Y cells is “neither is toxic for living cells even at high concentrations”. For the molecule “Gly-Arg-Lys-Lys-Arg-Arg-Gln-Arg-Arg-Arg [Biot-TAT(D), biotinylated form of TAT(D), reference compound]”, the “staining of amyloid plaques in transgenic mouse brain” value (“staining of amyloid plaques” below) in the series with amyloid plaques is reported as “strongly stained amyloid deposits”.

On to “H-Asp-ALA/VAL-Glu-Phe-Arg-His-Asp-Ser-Gly-Tyr-Glu-Val-His-His-Gln-Lys-Val-Phe-Phe-Ala-Glu-Asp-Val-Gly-Ala-Ile-Ile-Gly-Leu-Met-Val-Gly-Gly-Val-Val—OH [Aβ1-42WT, synthetic wild-type full-length Amyloid-β 1-42, reference compound]”, for which the “reduction of cell viability” value with SH-SY5Y cells turned out to be 35%. Also, the “diameter of small oligomers (~70%)” value at Aβ1-42WT is reported as 6-20 nm. With “H-Asp-ALA/VAL-Glu-Phe-Arg-His-Gly-Gly-Gly-Gly-Gly-Arg-Lys-Lys-Arg-Arg-Gln-Arg-Arg-Arg [Biot-Aβ1-6WTTAT(D), Aβ1-6WTTAT(D) containing a biotinylated residue at the C-terminus]”, in the series with amyloid plaques, the “staining of amyloid plaques” value was “able to bind and therefore stain the plaques”. For the same molecule, the “staining in brain slices of non-transgenic control mice” value in the series on amyloid plaques (control animals devoid of amyloid plaques, data not shown) was “unable to produce any staining”. On to “H-Asp-ALA/VAL-Glu-Phe-Arg-His-OH [Biot-Aβ1-6A2V(D), Aβ1-6A2V(D) containing a biotinylated residue at the C-terminus]”, for which the “staining of amyloid plaques” value with amyloid plaques is reported as “no immunostaining of amyloid was detected”.

B1: TAT: HIV-1 Tat of the cited studies (protein, UniProt P04608 1-86, looked up)
Protein Tat: MEPVDPRLEPWKHPGSQPKTACTNCYCKKCCFHCQVCFITKALGISYGRKKRRQRRRAHQNSQTHQASLSKQPTSQPRGDPTGPKE
In the case of B1, the “fold higher levels of Aβ42” value in the series on APP is recorded as 5.5 fold.

The values are drawn from article PMC4750079, “Tackling amyloidogenesis in Alzheimer’s disease with A2V variants of Amyloid-β” (Scientific Reports, 2016).
